These results are taken from article PMC7917437 (Journal of Medicinal Chemistry, 2021).

Data set [1] relates to LPS-induced mouse model. Conditions: LPS-induced mouse model ref 38; cited from earlier work.
The test system of data set [2] is CYP2B6. Briefly: CYP induction, mRNA by qRT-PCR in cultured human hepatocytes. It counts as in vitro ADME. Conditions: up to 30 μM, i.e., < 2-fold change and/or <20% of the positive control. For orientation: Quantitative PCR measures a nucleic acid by following its amplification.
Data set [3] can be described thus: Phase 1a single ascending dose study in healthy volunteers.
The subject of data set [4] is mouse, rat, monkey, and human hepatocyte incubations. Briefly: In vitro metabolism in hepatocyte incubations. The following applies: HPLC and mass spectrometry. It counts as in vitro ADME.
The nature of data set [5]: clinical. Conditions: both, human, plasma, oral.
The test system of data set [6] is chronic constriction injury model of neuropathy. Briefly: Chronic constriction injury model of neuropathy, von Frey assay. It counts as in vivo, male SD rats. The following applies: AUC over 6 h post dose.
Data set [7] deals with laminitis. The following applies: cited from earlier work.

As a reminder, the half-life is how long it takes for the measured level to halve. Low readings indicate rapid decline, high ones slow decline. Turning to `CC[C@H](C)C(=O)N1CCC(NC(=O)Nc2ccc(OC(F)(F)F)c(F)c2)CC1` [EC5026, (S)-1-(3-Fluoro-4-(trifluoromethoxy)phenyl)-3-(1-(2-methylbutanoyl)piperidin-4-yl)urea], in data set [1], the “neuroinflammation in the CNS” value is “prevent neuroinflammation”. The “effect on CYP2B6 mRNA levels” value in data set [2] was “little or no effect”. Moreover, the “effective total AUC for a daily dosing regimen” value in data set [3] (calculated) is 6 ng·h/mL. In addition, in data set [3] (human, single oral doses), the absorption result was “well absorbed with linear dose-proportionality”. Also, the putative metabolites detected entry in data set [4] is recorded as “seven”. For the same compound, the half-life in data set [5] was 42 to 59 h. Moreover, in data set [6] (at 10–20 fold lower doses, vs pregabalin (30 mg/kg) p = 0.039), the “efficacy compared with pregabalin” value was “superior to pregabalin”. The “pain measured with a von Frey assay (mechanical withdrawal thresholds)” value in data set [6] (male SD rats, oral gavage, 3 mg/kg, vs PEG 300 p ≤ 0.001) was “blocked pain”.
As to `O=C(Nc1ccc(OC(F)(F)F)cc1)N[C@H]1CC[C@H](Oc2ccc(C(=O)O)cc2)CC1` [t-TUCB, trans-4-{4-[3-(4-trifluoromethoxy-phenyl)-ureido]-cyclohexyloxy}-benzoic acid], the “outcome in a laminitic horse scheduled for euthanasia” value in data set [7] (after 5 days of treatment ref 49) was “complete recovery with no recurrent laminitis”. The “adverse effects from clinical exams and blood work” value in data set [7] (horse, five-day treatment, once daily 0.1 mg/kg ref 49) is reported as “no signs of adverse effects”. In addition, the “outcome in seven other laminitic horses” value in data set [7] (when all other treatments failed ref 50) was “showed improvement in disease”.
